Results taken from the NIST ThermoML archive (doi:10.1021/je050052+).
± gives the expanded uncertainty stated by the source.

Test: excess molar enthalpy (molar enthalpy of mixing); xn = mol fraction of the nth substance listed
Conditions: Liquid, Flow calorimetry

COC(=O)OC [dimethyl carbonate] + CO
Conditions	excess molar enthalpy [kcal/mol]
298.15 K, 1000 kPa, x2 = 0.25	0.2729 ± 0.00229
298.15 K, 1000 kPa, x2 = 0.3	0.2933 ± 0.00239
298.15 K, 1000 kPa, x2 = 0.35	0.3075 ± 0.00263
298.15 K, 1000 kPa, x2 = 0.4	0.315 ± 0.00263
298.15 K, 1000 kPa, x2 = 0.45	0.3163 ± 0.00263
298.15 K, 1000 kPa, x2 = 0.5	0.313 ± 0.00263
298.15 K, 1000 kPa, x2 = 0.55	0.3034 ± 0.00263
298.15 K, 1000 kPa, x2 = 0.6	0.2901 ± 0.00239
298.15 K, 1000 kPa, x2 = 0.65	0.2735 ± 0.00229
298.15 K, 1000 kPa, x2 = 0.7	0.2508 ± 0.00213
298.15 K, 1000 kPa, x2 = 0.75	0.2229 ± 0.00191
298.15 K, 1000 kPa, x2 = 0.8	0.1931 ± 0.00167
313.15 K, 100 kPa, x2 = 0.048	0.0748 ± 0.000765
313.15 K, 100 kPa, x2 = 0.1	0.1539 ± 0.00139
313.15 K, 100 kPa, x2 = 0.1492	0.2119 ± 0.00182
313.15 K, 100 kPa, x2 = 0.2014	0.2621 ± 0.00222
313.15 K, 100 kPa, x2 = 0.2506	0.2976 ± 0.00239
313.15 K, 100 kPa, x2 = 0.302	0.3238 ± 0.00263
313.15 K, 100 kPa, x2 = 0.3503	0.341 ± 0.00287
313.15 K, 100 kPa, x2 = 0.4001	0.3506 ± 0.00287
313.15 K, 100 kPa, x2 = 0.451	0.3535 ± 0.00287
313.15 K, 100 kPa, x2 = 0.4985	0.3472 ± 0.00287
313.15 K, 100 kPa, x2 = 0.5501	0.3409 ± 0.00287
313.15 K, 100 kPa, x2 = 0.6014	0.3255 ± 0.00263
313.15 K, 100 kPa, x2 = 0.6489	0.3073 ± 0.00263
313.15 K, 100 kPa, x2 = 0.6987	0.2839 ± 0.00239
313.15 K, 100 kPa, x2 = 0.7499	0.254 ± 0.00215
313.15 K, 100 kPa, x2 = 0.7992	0.2162 ± 0.00186
313.15 K, 100 kPa, x2 = 0.851	0.1699 ± 0.00151
313.15 K, 100 kPa, x2 = 0.95	0.0561 ± 0.000621
313.15 K, 1000 kPa, x2 = 0.0477	0.08505 ± 0.000837
313.15 K, 1000 kPa, x2 = 0.0994	0.158 ± 0.00141
313.15 K, 1000 kPa, x2 = 0.1484	0.2155 ± 0.00186
313.15 K, 1000 kPa, x2 = 0.2003	0.2637 ± 0.00222
313.15 K, 1000 kPa, x2 = 0.2493	0.2969 ± 0.00239
313.15 K, 1000 kPa, x2 = 0.3006	0.3229 ± 0.00263
313.15 K, 1000 kPa, x2 = 0.3487	0.3403 ± 0.00287
313.15 K, 1000 kPa, x2 = 0.3985	0.3519 ± 0.00287
313.15 K, 1000 kPa, x2 = 0.4493	0.3546 ± 0.00287
313.15 K, 1000 kPa, x2 = 0.5006	0.3496 ± 0.00287
313.15 K, 1000 kPa, x2 = 0.5485	0.3404 ± 0.00287
313.15 K, 1000 kPa, x2 = 0.5998	0.3247 ± 0.00263
313.15 K, 1000 kPa, x2 = 0.6504	0.3053 ± 0.00263
313.15 K, 1000 kPa, x2 = 0.7001	0.2815 ± 0.00237
313.15 K, 1000 kPa, x2 = 0.7512	0.2509 ± 0.00213
313.15 K, 1000 kPa, x2 = 0.8005	0.2149 ± 0.00184
313.15 K, 1000 kPa, x2 = 0.8501	0.1691 ± 0.00151
313.15 K, 1000 kPa, x2 = 0.9497	0.0534 ± 0.000598
313.15 K, 10000 kPa, x2 = 0.0477	0.08818 ± 0.00086
313.15 K, 10000 kPa, x2 = 0.0994	0.1621 ± 0.00143
313.15 K, 10000 kPa, x2 = 0.1484	0.2188 ± 0.00189
313.15 K, 10000 kPa, x2 = 0.2003	0.2659 ± 0.00225
313.15 K, 10000 kPa, x2 = 0.2493	0.2989 ± 0.00239
313.15 K, 10000 kPa, x2 = 0.3006	0.3252 ± 0.00263
313.15 K, 10000 kPa, x2 = 0.3487	0.3416 ± 0.00287
313.15 K, 10000 kPa, x2 = 0.3985	0.3512 ± 0.00287
313.15 K, 10000 kPa, x2 = 0.4493	0.3536 ± 0.00287
313.15 K, 10000 kPa, x2 = 0.5006	0.3509 ± 0.00287
313.15 K, 10000 kPa, x2 = 0.5485	0.3423 ± 0.00287
313.15 K, 10000 kPa, x2 = 0.5998	0.3285 ± 0.00263
313.15 K, 10000 kPa, x2 = 0.6504	0.3088 ± 0.00263
313.15 K, 10000 kPa, x2 = 0.7001	0.2842 ± 0.00239
313.15 K, 10000 kPa, x2 = 0.7512	0.2511 ± 0.00213
313.15 K, 10000 kPa, x2 = 0.8005	0.2158 ± 0.00186
313.15 K, 10000 kPa, x2 = 0.8501	0.1733 ± 0.00153
313.15 K, 10000 kPa, x2 = 0.9497	0.0561 ± 0.000621
328.15 K, 1000 kPa, x2 = 0.05	0.09171 ± 0.000884
328.15 K, 1000 kPa, x2 = 0.1	0.1733 ± 0.00153
328.15 K, 1000 kPa, x2 = 0.15	0.2349 ± 0.00201
328.15 K, 1000 kPa, x2 = 0.2	0.2867 ± 0.00239
328.15 K, 1000 kPa, x2 = 0.25	0.3264 ± 0.00263
328.15 K, 1000 kPa, x2 = 0.3	0.3555 ± 0.00287
328.15 K, 1000 kPa, x2 = 0.35	0.375 ± 0.00311
328.15 K, 1000 kPa, x2 = 0.4	0.3883 ± 0.00311
328.15 K, 1000 kPa, x2 = 0.45	0.3934 ± 0.00335
328.15 K, 1000 kPa, x2 = 0.5	0.3894 ± 0.00311
328.15 K, 1000 kPa, x2 = 0.55	0.3796 ± 0.00311
328.15 K, 1000 kPa, x2 = 0.6	0.3638 ± 0.00311
328.15 K, 1000 kPa, x2 = 0.65	0.3412 ± 0.00287
328.15 K, 1000 kPa, x2 = 0.7	0.3139 ± 0.00263
328.15 K, 1000 kPa, x2 = 0.75	0.279 ± 0.00234
328.15 K, 1000 kPa, x2 = 0.8	0.2383 ± 0.00203
328.15 K, 1000 kPa, x2 = 0.8509	0.1886 ± 0.00165
328.15 K, 1000 kPa, x2 = 0.95	0.0625 ± 0.000669
